Data published in PMC3086245 (Emerging Infectious Diseases, 2010).

Legend:
[1] = test system: influenza viruses A (H1N1) isolates, H275Y on N1 NA protein; set-up: species or system influenza virus A (H1N1)
[2] = target: NA of oseltamivir-resistant influenza viruses A (H1N1) (ORVs) with H275Y (Influenza A virus (H1N1), UniProt E3JK96); format: biochemical

SMILES | susceptibility to oseltamivir (in words) [1] | sensitivity of ORVs to the drug (in words) [2]
CCOC(=O)C1=C[C@@H](OC(CC)CC)[C@H](NC(C)=O)[C@@H](N)C1 [Oseltamivir, oseltamivir] | resistant | –
CC(=O)N[C@H]1[C@H]([C@H](O)[C@H](O)CO)OC(C(=O)O)=C[C@@H]1N=C(N)N [Zanamivir, zanamivir] | – | sensitive
